Counter-ions that a name gives are not always drawn.

One may read the melting point as the temperature, or range, at which the solid turns liquid.

One data set addresses T1, PDE3 (cGMP-inhibited) (Homo sapiens, UniProt Q14432).
T1 construct: investigated in homogenates of human platelets; from tissue; host or cells: homogenates of human platelets
Briefly: Inhibition of PDE isoenzymes: PDE3. The class given is biochemical. Particulars: homogenates of human platelets, cAMP or cGMP as substrate; read-out: PDE3 [-log IC50, mol/l] (converted). The protocol: (§1) 1. Inhibition of PDE Isoenzymes
(§2) The PDE activity was determined according to Thompson et al. (Adv Cycl Nucl Res 10: 69-92, 1979) with some modifications (Bauer and Schwabe, Naunyn-Schmiedeberg's Arch Pharmacol 311: 193198, 1980). The test samples contained 20 mM Tris (pH 7.4), 5 mM MgCl2, 0.5 μM cAMP or cGMP, [^3H]cAMP or [^3H]cGMP (about 30 000 cpm/sample), the PDE isoenzyme-specific additives described in greater detail below, the indicated concentrations of inhibitor and an aliquot of the enzyme solution in a total sample volume of 200 μl. Dilution series of the compounds according to the invention were prepared in DMSO and further diluted in the samples [1:100 (v/v)], to give the desired end concentration of the inhibitors at a DMSO concentration of 1% (v/v), which for its part has only a minute effect on PDE activity.
(§3) After preincubation at 37° C. for 5 minutes, the reaction was started by addition of the substrate (cAMP or cGMP). The samples were incubated at 37° C. for a further 15 min. The reaction was terminated by addition of 50 μl 0.2 N HCl. After cooling on ice for 10 minutes and addition of 25 μg 5′-nucleotidase (snake venom from Crotalus atrox), the mixture was again incubated at 37° C. for 10 min and the samples were then applied to QAE Sephadex A-25 columns (sample volume 1 ml). The columns were eluted with 2 ml of 30 mM ammonium formate (pH 6.0). The radioactivity of the eluate was measured and corrected by the corresponding blank values (measured in the presence of denatured protein); the blank values were less than 5% of the total radioactivity. In no case did the proportion of hydrolyzed nucleotide exceed 30% of the original substrate concentration.
PDE3 (cGMP-inhibited) was investigated in homogenates of human platelets (see Schudt et al., Biochem Pharmacol 1991: 42, 153-162) using cAMP or cGMP as substrate.
(§4) The IC50 values were determined from the concentration-inhibition curves by nonlinear regression.

The target of a further data set is PDE4 (cAMP-specific). Kind of data set: Inhibition of PDE isoenzymes: PDE4. The format is biochemical. To be noted: cytosol of human polymorphonuclear leukocytes (PMNL), cAMP as substrate, motapizone 1 μM. The protocol: as §1, §2, §3
PDE4 (cAMP-specific) was investigated in the cytosol of human polymorphonuclear leukocytes (PMNL) [isolated from leukocyte concentrates, see Schudt et al., Arch Pharmacol 1991: 344, 682-690] using cAMP as substrate. The PDE3 inhibitor motapizone (1 μM) was used to suppress the PDE3 activity emanating from contaminated platelets.
as §4

T1 sequence (Q14432 whole entry): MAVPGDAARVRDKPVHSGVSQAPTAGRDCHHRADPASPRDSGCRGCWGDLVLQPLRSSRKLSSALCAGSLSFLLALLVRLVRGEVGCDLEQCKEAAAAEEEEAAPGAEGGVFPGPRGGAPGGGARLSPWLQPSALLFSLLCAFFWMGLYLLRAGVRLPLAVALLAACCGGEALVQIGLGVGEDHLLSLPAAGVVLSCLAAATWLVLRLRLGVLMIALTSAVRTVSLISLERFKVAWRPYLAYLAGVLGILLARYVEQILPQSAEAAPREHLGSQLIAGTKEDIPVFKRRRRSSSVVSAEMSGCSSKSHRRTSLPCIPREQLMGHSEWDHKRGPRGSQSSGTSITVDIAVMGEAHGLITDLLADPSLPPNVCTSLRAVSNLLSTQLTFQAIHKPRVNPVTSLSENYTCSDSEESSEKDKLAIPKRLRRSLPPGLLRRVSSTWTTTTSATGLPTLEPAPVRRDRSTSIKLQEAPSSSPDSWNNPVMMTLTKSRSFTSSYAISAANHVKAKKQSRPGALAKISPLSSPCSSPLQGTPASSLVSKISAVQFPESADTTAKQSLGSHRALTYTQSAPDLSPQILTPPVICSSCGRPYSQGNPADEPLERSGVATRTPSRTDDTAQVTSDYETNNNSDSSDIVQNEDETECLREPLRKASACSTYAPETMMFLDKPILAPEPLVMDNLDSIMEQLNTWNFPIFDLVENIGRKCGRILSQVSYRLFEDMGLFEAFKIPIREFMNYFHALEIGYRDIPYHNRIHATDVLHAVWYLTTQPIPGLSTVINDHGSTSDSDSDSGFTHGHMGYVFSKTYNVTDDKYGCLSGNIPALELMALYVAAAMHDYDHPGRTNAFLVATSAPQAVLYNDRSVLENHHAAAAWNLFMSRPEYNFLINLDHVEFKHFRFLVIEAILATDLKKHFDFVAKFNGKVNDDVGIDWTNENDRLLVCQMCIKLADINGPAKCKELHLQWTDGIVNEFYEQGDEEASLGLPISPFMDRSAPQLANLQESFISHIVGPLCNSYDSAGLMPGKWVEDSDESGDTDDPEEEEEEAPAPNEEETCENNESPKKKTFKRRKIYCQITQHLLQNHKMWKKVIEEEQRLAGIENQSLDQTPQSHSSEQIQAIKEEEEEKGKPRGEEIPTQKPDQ

With `CCOc1cc2c(cc1OC)C(c1ccc(C(=O)NC(=N)N(CC)CC)cc1)=NC1CCN(C)CC21` (stereo not drawn) (as salt: hydrochloride) [Compound 2, N′-{1-[4-((+)-cis-9-Ethoxy-8-methoxy-2-methyl-1,2,3,4,4a,10b-hexahydro[c][1,6]naphthyridin-6-yl)phenyl]methanoyl}-N,N-diethylguanidine dihydrochloride], the melting point lay in the range of 194 to 203 °C.

On to `CCOc1cc2c(cc1OC)C(c1ccc(C(=O)NC(=N)N(C)C)cc1)=NC1CCN(C)CC21` (stereo not drawn) (as salt: hydrochloride) [Compound 3, N′{1-[4-((+)-cis-9-Ethoxy-8-methoxy-2-methyl-1,2,3,4,4a,10b-hexahydro[c][1,6[-naphthyridin-6-yl)phenyl]methanoyl}-N,N-dimethylguanidinedihydrochloride], for which the melting point fell in the range of 134 to 141 °C.

Regarding `CCOc1cc2c(cc1OC)C(c1ccc(C(=O)NC(=N)N(C)CCO)cc1)=NC1CCN(C)CC21` (stereo not drawn) (as salt: hydrochloride) [Compound 4, N′-{1-[4-((+)-cis-9-Ethoxy-8-methoxy-2-methyl-1,2,3,4,4a,10b-hexahydro[c][1,6]naphthyridin-6-yl)phenyl]methanoyl}-N-(2-hydroxyethyl)-N-methylguanidine dihydrochloride], the melting point was 172 to 179 °C.

The compound `CCOc1cc2c(cc1OC)C(c1ccc(C(=O)N=C(N)N3CCN(C)CC3)cc1)=NC1CCN(C)CC21` (stereo not drawn) (as salt: hydrochloride) [Compound 6, N-[1-Amino-1-(4-methylpiperazin-1-yl)methylene]-4-((+)-cis-9-ethoxy-8-methoxy-2-methyl-1,2,3,4,4a,10b-hexahydro[c][1,6]naphthyridin-6-yl)benzamide dihydrochloride] registered a melting point of 209 to 215 °C.

Consider `CCOc1cc2c(cc1OC)C(c1ccc(C(=O)NC(=N)N3CCCC3)cc1)=N[C@H]1CCN(C)C[C@@H]21` (relative stereo) [Compound 11, 4-((cis)-9-Ethoxy-8-methoxy-2-methyl-1,2,3,4,4a,10b-hexahydro-benzo[c][1,6]naphthyridin-6-yl)-N-(1-imino-1-pyrrolidin-1-yl-methyl)-benzamide], for which the melting point lay in the range of 145 to 152 °C. Further, the IC50 on PDE3 (cGMP-inhibited) is 550 nM. The “PDE4 [-log IC50, mol/l]” value on PDE4 (cAMP-specific) amounted to 8.41.

With `CCOc1cc2c(cc1OC)C(c1ccc(C(=O)NC(=NC)N(C)C)cc1)=N[C@H]1CCN(C)C[C@@H]21.Cl` (relative stereo) [Compound 13, N′-{1-[4-((cis)-9-Ethoxy-8-methoxy-2-methyl-1,2,3,4,4a,10b-hexahydro-benzo[c][1,6]naphthyridin-6-yl)-phenyl]-methanoyl}-N,N,N″-trimethyl-guanidine hydrochloride], the melting point was 143 to 150 °C. In addition, on PDE3 (cGMP-inhibited), the IC50 was 91.2 nM. The “PDE4 [-log IC50, mol/l]” value on PDE4 (cAMP-specific) is 9.34.

As for `CCOc1cc2c(cc1OC)C(c1ccc(C(=O)N=C(N(C)C)N(C)C)cc1)=NC1CCN(C)CC21` (single isomer, unassigned) (as salt: hydrochloride) [Compound 5, N″{1-[4-((−)-cis-9-Ethoxy-8-methoxy-2-methyl-1,2,3,4,4a,10b-hexahydro[c][1.6]naphthyridin-6-yl)phenyl]methanoyl}-N,N,N′,N′-tetramethylguanidine hydrochloride], the melting point fell in the range of 169 to 175 °C.

Consider `CCOc1cc2c(cc1OC)C(c1ccc(C(=O)NC(=N)N(C)C)cc1)=NC1CC[N+](C)([O-])CC21` (single isomer, unassigned) [Compound 22, N′-{1-[4-((−)-cis-9-Ethoxy-8-methoxy-2-methyl-2-oxy-1,2,3,4,4a,10b-hexahydro-benzo[c][1,6]naphthyridin-6-yl)-phenyl]-methanoyl}-N,N-dimethyl-guanidine], for which the melting point was 220 to 224 °C. Also, the IC50 on PDE3 (cGMP-inhibited) is 676 nM. Moreover, the “PDE4 [-log IC50, mol/l]” value at PDE4 (cAMP-specific) is on record as 7.71.

In the case of `CCOc1cc2c(cc1OC)C(c1cccc(C(=O)NC(=N)N(C)C)c1)=NC1CCN(C)CC21` (stereo not drawn) [Compound 10, N′-{1-[3-(cis)-9-Ethoxy-8-methoxy-2-methyl-1,2,3,4,4a,10b-hexahydro-benzo[c][c][1,6]naphthyridin-6-yl)-phenyl]-methanoyl}-N,N-dimethyl-guanidine], the melting point was in the range of 186 to 188 °C. Also, the IC50 at PDE3 (cGMP-inhibited) is 891 nM. Further, the “PDE4 [-log IC50, mol/l]” value on PDE4 (cAMP-specific) is recorded as 8.15.

The values are drawn from patent publication US6936622B2, “6-phenylbenzonaphthyridines” (Altana Pharma AG, priority 2001, dated 2005).
